Measured values: patent US7112318B2, “Non-invasive diagnostic imaging technology for mitochondria dysfunction using radiolabeled lipophilic salts” (The Johns Hopkins University, priority 2002, dated 2006)

Key:
[1] = test system: FCA-induced inflammation; assay: Accumulation in FCA-induced inflammation tissue and healthy muscle; type: in vivo; details: rats, 3 days after administration of FCA
Protocol: (§1) 0.1 ml of nitrosomethyl urea (NUM) was introduced i.p in female rats (150 g). When tumor reached an approximate size of 1 to 1.5 cm, FCA was injected (0.15 ml) to the hind limb footpad. Uptake assays were carried out 3 days thereafter. F-18-FBnTP (0.25 mCi) was injected via tail vein. Sixty minutes later tumor, inflamed tissue and healthy muscle tissue of the opposite limb (control) were collected on ice, weighed and counted in a gamma counter together with standards.
The accumulation of the novel F-18-phosphonium cations, F-18-FBnTP and F-18-fluoropropyl triphenyl phosphonium (F-18-FPTP) in comparison with F-18-FDG in FCA-induced inflammation and healthy tissue is presented in Table 2. Induction of inflammation and activity counting were carried out as described above.

[2] = Stability of fluorination: total bone uptake after i.v. injection; type: in vivo; details: mice, 5 and 30 min p.i., compared to mice injected with F-18 only
Protocol: Methods: Mice were injected via the tail vein with 25 μCi of F-18-PhC; 5 and 30 min p.i., the left or right femur bone was removed, and bone radioactivity together with standard (1:100 of injected dose) were counted in a gamma counter. A parallel group of mice was injected with free fluorides (F-18). Three mice of each group were studied at each time point. Radioactivity is represented as percentage of injected dosed (% ID) and total bone uptake was calculated as activity in femur bone×20.

[3] = test system: myocardium; assay: F-18-FBnTP myocardial accumulation in heart failure (pacing 210 bpm, 4 weeks, PET); type: in vivo, Mongrel dog
Protocol: Pacing of the mongrel dog heart at high rate (210 bpm) for a four weeks is a well-established model of heart failure. The advantage of this model is that the cardiomayopathy solely involve apoptosis without stenosis of coronary artery or related ischemia. Therefore, in this model the affect of apoptosis on FBnTP uptake can be dissected.
Methods: Preparation of dog and data acquisition was performed as described above. Mongrel dog was installed with a pacemaker in the rib case and underwent FBnTP PET scan (presented above). Following the baseline scan, the dog_s heart was paced at a rate of 210 bpm for 4 weeks and a second scan was acquired.
Quantitation of FBnTP in the myocardium was performed using region of interest placed on co-registered myocardial images, whose activity was normalized to the injected dose, before and after pacing. An example for ROI placement is illustrated in FIG. 18.

[4] = test system: orthotopic NMU mammary tumor; assay: Tracer uptake in NMU mammary tumor versus healthy gland and FCA inflammation; type: in vivo; details: NMU-bearing rats, 60 min after i.v., normalized to muscle
From the text: The carcinogen nitrosomethyl urea (NMU) induces carcinoma tumors solely in the mammary gland of female rats. Therefore, the orthotopic NMU mammary tumor is an excellent model for evaluating tracer tumor selectivity by contrasting radioactivity accumulating in mammary gland infested with carcinoma cells and healthy mammary gland. Freund Complete Adjuvant (FCA) is a well_studied inflammation agent in rats Induction of FCA inflammation in NMU-bearing rats allows for direct quantitation of tracer capability to differentiate carcinoma from inflammation.
as §1

[5] = Stability in plasma after injection of the agent into mice (column-switch HPLC radiochromatography); type: in vivo
Protocol: Samples of mouse plasma were obtained from heparinized whole bloodcollected 5, 15 and 30 min p.i. of the tracer. To eliminate binding to plasma proteins, the plasma was added to solid urea to give a final concentration of 8M urea. The plasma-urea was loaded into a column switch HPLC system (Hilton 2000), in which the plasma passes through a small capture column (Oasis Sorbent, Waters Corp.), which retains lipophilic solutes, while polar species fail to bind and are detected as they pass through a positron detector. After four minutes, the capture column is free of plasma proteins and polar species. Then, the contents of the capture column was swept onto an analytical column (Prodigy ODS-3, Phenomenex) by 40% acetonitrile, 60% triethylamine acetate buffer pH 4.1 at 1 mL/min, where separation of the parent compound and lipophilic metabolites occurs. The effluent from the analytical column also passes through the positron flow detector. The proportion of each species is determined from the area under each chromatographic peak. Results: Radiochemical purity of the 18F-labeled FBnTP was more than 95%. […] FIG. 1 depicts the chromatogram of plasma collected 30 min p.i., and the parental compound incubated for a similar time period (30 min) in buffered saline. Plasma activity and parental compound peaked at same time (˜6 min).

[6] = Biodistribution in mice 60 min after i.v. injection; details: 60 min after iv. injection
Protocol: Three to five mice were used for the biodistribution study of each tracer. Nonanesthetized animals were injected i.v. with tracer solution (FBnTP or FPTP, TPMP 25 μCi; MIBI 40 μCi; TPP 2 μCi, all in a volume of 0.2 mL saline) then killed by neck dislocation at 60 min after injection. The organs and tissues of interest were removed and counted by a radioactivity counter along with standards (1:1000) (LKB Wallac, 1282 Compugamma CS).

[7] = test system: myocardium; assay: F-18-FBnTP uptake kinetics in the myocardium (dog PET); type: in vivo, Mongrel dogs
Protocol: Methods: Mongrel dogs (BW=35 kg) were injected with 3–4 mCi of F-18-FBnTP. Images were acquired on a GE 4096+ scanner (15 slices, 6.5 mm slice thickness). PET scans of increasing duration (15 sec to 20 min) were acquired over a total time of 85 min post-injection. Arterial blood samples (0.5 ml in volume) were collected every few seconds for the first 3 minutes and at gradually increasing intervals (1 to 10 min) for the remaining time of the imaging study. The vascular and myocardial kinetics of F-18-FBnTP was analyzed using the ROI method.

[8] = test system: human lung carcinoma A549 cells; assay: Detection of response of lung carcinoma tumor to taxeter in vivo; details: A549 tumor in nude mice, 48 hours after i.v. taxeter, 60 min after tracer, normalized to muscle
Protocol: Methods: 2×10^6 human lung carcinoma A549 cells were inoculated s.q. in 12 nude mice. When tumor size reached an approximate size of 5—10 mm, six mice were injected i.v. with taxeter and six mice served as control. Uptake assays were carried out 48 hours thereafter. 25 μCi of F-18-FBnTP were injected i.v., and tumor and muscle tissue was dissected after 60 min.

[9] = test system: Human lung carcinoma H549 cells; assay: Mitochondria membrane potential (MMP)-dependent cellular uptake with CCCP; type: cell-based; details: 30 min
Protocol: The extent of MMP-dependent cellular uptake of F-18-FBnTP was assessed using CCCP, a known protonophore that selectively abolishes the MMP.
Methods: Human lung carcinoma H549 cells ([…]) were incubated with 0.1 μCi/ml F-18-FBnTP for 30 min. Samples of the suspension (1 mL) were transferred to Eppendorf s vials and placed in a 370C bath. Varying concentrations (30, 60, 90, 120 μM) of CCCP were added to the suspension. After 30 min of incubation with CCCP, the Eppendorf vials were centrifuged for 1 min, and activity in pellet and supernatant was immediately counted.

[10] = test system: prostate carcinoma; assay: Tumor selectivity in orthotopic model of prostate carcinoma; type: in vivo; details: nude mice, normalized to muscle
Protocol: Methods: 2×10^6 cells were injected, under anesthesia, into the prostate epithelial tissue of nude mice. When tumor reached an approximate size of 5 mm, uptake assays were performed as described above. Tumor selectivity of F-18-FBnTP and F-18-FDG was compared (3 mice in each group)

SMILES: [18F]c1ccc(C[P+](c2ccccc2)(c2ccccc2)c2ccccc2)cc1 [Example F-18-FBnTP, F-18-fluorobenzyl triphenyl phosphonium]
- Inf/Control [1]: 0.42 ± 0.40
- accumulation, Blood [1]: 0.10 ± 0.01 % ID/g tissue
- accumulation, Control (healthy muscle) [1]: 0.76 ± 0.21 % ID/g tissue
- accumulation, Inflammation [1]: 0.27 ± 0.22 % ID/g tissue
- total bone uptake [2]: minimal bone uptake
- total bone uptake ([2]; listed as F-18-PhC): marginal bone uptake
- Ratio P/B ([3]; Slices 36–37, ROI1): 0.62
- Ratio P/B ([3]; Slices 36–37, ROI2): 0.91
- Ratio P/B ([3]; Slices 36–37, ROI3): 0.85
- Ratio P/B ([3]; Slices 46–49, ROI1): 0.56
- myocardial uptake, Baseline ([3]; Slices 46–49, ROI1, average activity over 36 to 85 min per slice): *108.62 % of injected dose
- Ratio P/B ([3]; Slices 46–49, ROI2): 0.76
- Ratio P/B ([3]; Slices 46–49, ROI3): 0.82
- decrease in uptake in the inferior wall after pacing ([3]; dog, 4-wks pacing at 210 bpm versus baseline): 40–60%
- uptake in tumor relative to healthy gland [4]: 4 times
- uptake in tumor relative to inflammation ([4]; FCA inflammation 3 days): 3 times
- stable after intravenous injection in vivo ([5]; mice, plasma radiochromatograms): more than 30 min
- single radio-peak in plasma, share of total activity ([5]; mouse plasma after i.v. injection, no other peak observed): 97%
- biodistribution, blood [6]: 0.02 ± 0.00 % ID/g
- biodistribution, brain [6]: 0.07 ± 0.01 % ID/g
- biodistribution, heart [6]: 35.39 ± 5.02 % ID/g
- biodistribution, kidney [6]: 4.89 ± 0.88 % ID/g
- biodistribution, liver [6]: 3.00 ± 1.12 % ID/g
- biodistribution, lung [6]: 7.38 ± 1.55 % ID/g
- biodistribution, muscle [6]: 4.31 ± 1.30 % ID/g
- biodistribution, spleen [6]: 1.79 ± 0.57 % ID/g
- accumulation in the myocardium, time to equilibrium ([7]; dog PET, 85 min scan): reached equilibrium within a few minutes
- washout from the blood pool ([7]; dog, arterial blood samples): rapid washout
- decrease in accumulation in tumor after taxeter, compared to non-treated mice [8]: ~50%
- cellular uptake in the presence of varying concentrations of CCCP ([9]; CCCP 30, 60, 90, 120 μM): dose-dependent decrease
- MMP-dependent share of cellular uptake ([9]; CCCP 30-120 μM): 86%
- uptake ratio of malignant-to-normal prostate tissue [10]: 2.5
